In publication PMC9694334, “Synthesis and Biological Evaluation of a Fused Structure of Indolizine and Pyrrolo[1,2-c]pyrimidine: Identification of Its Potent Anticancer Activity against Liver Cancer Cells” (Pharmaceuticals, 2022):

Key:
hepatocellular carcinoma = system: hepatocellular carcinoma; parameters: method as in PMID 10951336, PMID 11408798, PMID 11462924, PMID 12115351, PMID 14612894; settings: gemcitabine alone; phase 2 clinical trials; cited from earlier work
Huh7 cells = test: Cell viability assay (MTS) in Huh7 cells; format: cell-based; settings: Homo sapiens, Huh-7, mean, n = 5, 72 h for 5r (Figure 2)
Experimental: (§1) HepG2, Huh7, H1299, HT29, AGS and A549 cells were purchased from the Korean Cell Line Bank (Seoul, Korea) and HaCaT cells were obtained from Prof. Sohee Kwon (Yonsei University, Korea). Liver cancer cells (HepG2), human keratinocyte cells (HaCaT), and lung cancer cells (A549) were grown in DMEM high-glucose medium, liver cancer cells (Huh7) and non-small cell lung cancer cells (H1299) were grown in RPMI 1640, and gastric cancer cells (AGS) were grown in Coon’s modified F12 medium. All media were supplemented with 10% FBS, 100 Units/mL penicillin, and 100 μg/mL streptomycin. All cells were incubated at 37 °C, 5% CO2 and 95% humidity.
(§2) Cell viability assay was conducted using Cell Titer 96® AQueous One Solution Cell proliferation Assay kit (Promega, Madison, WI, USA). Five cancer cells and HaCaT cells were plated in 96-well microplates with growth medium for 24 h. When cell confluency reached ~30%, cells were treated with DMSO (vehicle) and test compounds. The medium and test compounds were replaced every 24 h. To measure cell viability, the cells were incubated with MTS solution for 1 h. The absorbance was measured by using Infinite M200 microplate reader (Tecan, Männedorf, Switzerland) at 490 nm.
(§3) Figure 2 Effect of 5r on cell viability in HepG2, Huh7, AGS, H1299, A549, HaCaT, NIH3T3, and HEK293T cells. (A–H) HepG2, Huh7, AGS, H1299, A549, HaCaT, NIH3T3, and HEK293T cells were cultured with 5r at the indicated concentrations for 72 h, and medium was replaced every 24 h with freshly added 5r. Cell viability was measured by MTS analysis (mean ± S.D., n = 5). * p < 0.05, ** p < 0.01, *** p < 0.001.

HepG2 cells = test: Cell viability assay (MTS) in HepG2 cells; format: cell-based; settings: mean; for IC50: Homo sapiens, MTS, n = 5, 72 h for 5r (Figure 2)
Experimental: as §1, §2, §3

HaCaT cells = test: Cell viability assay (MTS) in HaCaT cells; format: cell-based, human; settings: Homo sapiens, mean, n = 5
Experimental: as §1, §2, §3

caspase-3 [1] = test: Caspase-3 activity assay in Huh7 cells; format: cell-based; settings: 20 μM Ac-DEVD-CHO, Figure 4D
Experimental: (§4) HepG2 and Huh7 cells were plated in 96-black-well plate to about 40% confluence, and then 5r was treated for 24 h. To assess activity of caspase-3, the growth medium was changed with 100 μL of PBS containing 1 μM caspase-3 substrate, NucView 488, and incubated at room temperature. After 20 min, 1 μM Hoechst 33342 was treated to stain the cells. Activity of caspase-3 was suppressed by Ac-DEVD-CHO, a selective caspase-3 inhibitor. FLUOstar Omega microplate reader (BMG Labtech, Ortenberg, Germany) was used to assess the fluorescence of NucView 488 and Hoechst, and Lionheart FX Automated Microscope (BioTek, Winooski, VT, USA) was used to acquire the fluorescence microscopy images.
(§5) Figure 4 Effect of 5r on activity of caspase-3 and cleavage of PARP in HepG2 and Huh7 cells. (A,B) HepG2 and Huh7 cells were incubated with 3 µM 5r for 24 h and then incubated with 1 µM caspase-3 substrate (green) and 1 µM Hoechst 33,342 (blue) for 20 min before image acquisition. (C,D) Cells were cultured with 5r at the indicated concentrations for 24 h and then 1 μM caspase-3 substrate was treated for 20 min. Caspase-3 was inhibited by 20 μM Ac-DEVD-CHO (mean ± S.D., n = 3). (E,F) Cells were cultured with 5r at the indicated concentrations for 24 h, and expression level of PARP, cleaved-PARP and β-actin were measured by Western blot analysis. […]

caspase-3 [2] = test: Caspase-3 activity assay in HepG2 cells; format: cell-based; settings: 20 μM Ac-DEVD-CHO, Figure 4C
Experimental: as §4, §5

AGS cells = test: Cell viability assay (MTS) in AGS cells; format: cell-based; settings: 10 μM, mean, n = 3
Experimental: as §1, §2, §3

H1299 cells = test: Cell viability assay (MTS) in H1299 cells; format: cell-based; settings: 10 μM, mean, n = 3
Experimental: as §1, §2, §3

A549 cells = test: Cell viability assay (MTS) in A549 cells; format: cell-based; settings: 10 μM, mean, n = 3
Experimental: as §1, §2, §3

HT29 cells = test: Cell viability assay (MTS) in HT29 cells; format: cell-based; settings: mean, n = 3
Experimental: as §1, §2

| IC50 (Huh7 cells) [µM] | IC50 (HepG2 cells) [µM] | Molecule | IC50 (HaCaT cells) [µM] | other results |
| --- | --- | --- | --- | --- |
|  |  | Nc1ccn([C@@H]2O[C@H](CO)[C@@H](O)C2(F)F)c(=O)n1 [gemcitabine] |  | Response rate (hepatocellular carcinoma): 0–20% |
| 1.45 | 1.31 | COc1cccc(-c2nc3c(c(C#N)c4ccccn43)c3cccn23)c1 [Compound 5q, 5-(3-Methoxyphenyl)pyrrolo[1′,2′:1,6]pyrimido[5,4-b]indolizine-12-carbonitrile] | 8.3 |  |
| 2.25 | 3.42 | COc1ccccc1-c1nc2c(c(C#N)c3ccccn32)c2cccn12 [Compound 5p, 5-(2-Methoxyphenyl)pyrrolo[1′,2′:1,6]pyrimido[5,4-b]indolizine-12-carbonitrile] | 16.2 |  |
| 2.72 | 1.75 | N#Cc1c2c3cccn3c(-c3ccccc3Br)nc2n2ccccc12 [Compound 5w, 5-(2-Bromophenyl)pyrrolo[1′,2′:1,6]pyrimido[5,4-b]indolizine-12-carbonitrile] | 9.53 |  |
|  |  | Ac-DEVD-CHO [reference compound] |  | Inhibition of 5r-increased caspase-3 activity in Huh7 cells (caspase-3 [1]): fully inhibited; Inhibition of 5r-increased caspase-3 activity in HepG2 cells (caspase-3 [2]): fully inhibited |
| 1.47 | 2 | N#Cc1c2c3cccn3c(-c3cccnc3)nc2n2ccccc12 [Compound 5o, 5-(Pyridin-3-yl)pyrrolo[1′,2′:1,6]pyrimido[5,4-b]indolizine-12-carbonitrile] | 3.98 |  |
| 0.6 | 2.27 | N#Cc1c2c3[nH]c4ccccc4c3c(-c3cccs3)nc2n2ccccc12 [Compound 10d, 7-(Thiophen-2-yl)-12H-indolizino[2′,3′:5,6]pyrido[4,3-b]indole-13-carbonitrile] | 0.81 |  |
| 0.71 | 0.84 | N#Cc1c2c3cccn3c(-c3cc(Cl)ccc3O)nc2n2ccccc12 [Compound 5ab, 5-(5-Chloro-2-hydroxyphenyl)pyrrolo[1′,2′:1,6]pyrimido[5,4-b]indolizine-12-carbonitrile] | 2.3 |  |
| 7.85 | 3.52 | N#Cc1c2c3cccn3c(-c3ncc[nH]3)nc2n2ccccc12 [Compound 5x, 5-(1H-Imidazol-2-yl)pyrrolo[1′,2′:1,6]pyrimido[5,4-b]indolizine-12-carbonitrile] | 24.1 |  |
| 1.33 | 1.48 | N#Cc1c2c3cccn3c(-c3cccc(Cl)c3)nc2n2ccccc12 [Compound 5v, 5-(3-Chlorophenyl)pyrrolo[1′,2′:1,6]pyrimido[5,4-b]indolizine-12-carbonitrile] | 15.3 |  |
| 0.75 | 0.28 | N#Cc1c2c3cccn3c(-c3cccs3)nc2n2ccccc12 [Compound 5n, 5-(Thiophen-2-yl)pyrrolo[1′,2′:1,6]pyrimido[5,4-b]indolizine-12-carbonitrile] | 13.3 | % Inhibition of Cell Viability at 10 μM HepG2 (HepG2 cells; 10 μM, n = 3): 98.9%; % Inhibition of Cell Viability at 10 μM AGS (AGS cells): <25%; % Inhibition of Cell Viability at 10 μM H1299 (H1299 cells): 70.3%; % Inhibition of Cell Viability at 10 μM A549 (A549 cells): 38.0%; % Inhibition of Cell Viability at 10 μM HT29 (HT29 cells): 48.4% |
| 0.87 | 1.17 | COc1cc(O)c(-c2nc3c(c(C#N)c4ccccn43)c3cccn23)cc1OC [Compound 5aa, 5-(2-Hydroxy-4,5-dimethoxyphenyl)pyrrolo[1′,2′:1,6]pyrimido[5,4-b]indolizine-12-carbonitrile] | 2.21 |  |
| 4.02 | 2.94 | N#Cc1c2c3cccn3c(-c3cccc(O)c3)nc2n2ccccc12 [Compound 5s, 5-(3-Hydroxyphenyl)pyrrolo[1′,2′:1,6]pyrimido[5,4-b]indolizine-12-carbonitrile] | 8.49 |  |
